Measurements as given in paper PMC3796444 (PLoS ONE, 2013).
Residue numbers refer to the chain shown, from its start.

How the values were obtained:
Type in all cases: binding
[1] = biological target: T1, alanine:glyoxylate aminotransferase (AGT), AGT WT (major allele) (Homo sapiens, UniProt P21549); test: filtration ([…] kDa cut-off) and UV absorption of released PMP; settings: holo-enzyme 36 µM monomer with L-Ala, 1 h, 25°C
T1 construct: gene AGXT; His-tagged full-length AGT from pCOLDII, expressed in E. coli BL21, IMAC and SEC; about 90 kDa dimer
T1 sequence (P21549 1-392): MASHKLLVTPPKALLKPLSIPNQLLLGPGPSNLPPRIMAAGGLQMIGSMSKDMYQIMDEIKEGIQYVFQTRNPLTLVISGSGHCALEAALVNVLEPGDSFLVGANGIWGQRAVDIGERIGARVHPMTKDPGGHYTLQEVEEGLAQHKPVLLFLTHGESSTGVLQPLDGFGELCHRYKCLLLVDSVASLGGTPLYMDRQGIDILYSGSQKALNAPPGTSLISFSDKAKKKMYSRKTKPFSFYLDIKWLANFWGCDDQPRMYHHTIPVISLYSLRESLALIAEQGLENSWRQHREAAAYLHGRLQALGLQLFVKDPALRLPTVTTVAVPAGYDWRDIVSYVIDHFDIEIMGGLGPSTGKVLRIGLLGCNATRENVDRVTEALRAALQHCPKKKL

[2] = biological target: T2, alanine:glyoxylate aminotransferase (AGT), AGT WT (major allele) (Homo sapiens, UniProt P21549, I340M/P11L); test: fluorescence equilibrium titration of apo-AGT; settings: read-out: K d(PLP) (nM) ^b
T2 construct: gene AGXT; His-tagged full-length AGT from pCOLDII, expressed in E. coli BL21, IMAC and SEC; about 90 kDa dimer
T2 sequence (P21549 1-392 P11L/I340M): T1 sequence (P21549 1-392) with P11L, I340M
Source text: (§1) fluorescence equilibrium titration of apo-AGT on alanine:glyoxylate aminotransferase (AGT), AGT WT (major allele)

[3] = biological target: T3, alanine:glyoxylate aminotransferase (AGT), AGT WT (major allele) (Homo sapiens, UniProt P21549, A295T/I340M/P11L); test: fluorescence equilibrium titration of apo-AGT; settings: read-out: K d(PLP) (nM) ^b
T3 construct: gene AGXT; His-tagged full-length AGT from pCOLDII, expressed in E. coli BL21, IMAC and SEC; about 90 kDa dimer
T3 sequence (P21549 1-392 P11L/A295T/I340M): T1 sequence (P21549 1-392) with P11L, A295T, I340M
Source text: as §1

[4] = biological target: T4, alanine:glyoxylate aminotransferase (AGT), AGT WT (major allele) (Homo sapiens, UniProt P21549, I340M); test: fluorescence equilibrium titration of apo-AGT; settings: read-out: K d(PLP) (nM) ^b
T4 construct: gene AGXT; His-tagged full-length AGT from pCOLDII, expressed in E. coli BL21, IMAC and SEC; about 90 kDa dimer
T4 sequence (P21549 1-392 I340M): T1 sequence (P21549 1-392) with I340M
Source text: as §1

[5] = biological target: T5, alanine:glyoxylate aminotransferase (AGT), AGT WT (major allele) (Homo sapiens, UniProt P21549, A368T/I340M/P11L); test: fluorescence equilibrium titration of apo-AGT; settings: read-out: K d(PLP) (nM) ^b
T5 construct: gene AGXT; His-tagged full-length AGT from pCOLDII, expressed in E. coli BL21, IMAC and SEC; about 90 kDa dimer
T5 sequence (P21549 1-392 P11L/I340M/A368T): T1 sequence (P21549 1-392) with P11L, I340M, A368T
Source text: as §1

[6] = biological target: T1, alanine:glyoxylate aminotransferase (AGT), AGT WT (major allele); test: fluorescence equilibrium titration of apo-AGT; settings: read-out: K d(PLP) (nM) ^b
Source text: as §1

[7] = biological target: T6, alanine:glyoxylate aminotransferase (AGT), AGT WT (major allele) (Homo sapiens, UniProt P21549, I340M/P11L/R197Q); test: fluorescence equilibrium titration of apo-AGT; settings: read-out: K d(PLP) (nM) ^b
T6 construct: gene AGXT; His-tagged full-length AGT from pCOLDII, expressed in E. coli BL21, IMAC and SEC; about 90 kDa dimer
T6 sequence (P21549 1-392 P11L/R197Q/I340M): T1 sequence (P21549 1-392) with P11L, R197Q, I340M
Source text: as §1

Cc1ncc(COP(=O)(O)O)c(CN)c1O [PMP]
% PMP released [1]: ~ 3%

Cc1ncc(COP(=O)(O)O)c(C=O)c1O [PLP]
Kd [2]: 157 ± 15 nM
Kd [3]: 71 ± 16 nM
Kd [4]: 172 ± 42 nM
Kd [5]: 134 ± 26 nM
Kd [6]: 100 ± 30 nM
Kd [7]: 156 ± 34 nM
